Assay results published in US12172975B2, “1H-indazole carboxamides as receptor-interacting protein kinase 1 inhibitors (RIPK1)” (BRISTOL-MYERS SQUIBB COMPANY, priority 2018, dated 2024).
Where a name gives a salt, the structure may show the parent alone. Read-outs that look alike come from different tables or passages of the source.

Assays:
[1] = tested on: MLKL phosphorylation in HT29-L23 human colorectal adenocarcinoma cells; test: MLKL Phosphorylation High-Content Assay; type: cell-based; details: necroptosis induced with TNFα, SMAC mimetic and Z-VAD, 6 h, read-out: pMLKL (IC50)
Summary of the method: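 HT29-L23 cells were induced to necroptosis with TNFα (35 ng/mL), SMAC mimetic (700 nM) and Z-VAD (140 nM) for 6 h at 37 °C. Phospho-MLKL (S358) immunofluorescence was imaged and quantified per cell; maximal inhibition set by Nec-1s (6.25 μM), and IC50/Ymax from 4-parameter logistic fit.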

[2] = target: His-GST-TVMV-hRIPK1 (1-324) (Homo sapiens (Human), UniProt Q13546); test: RIPK1 HTRF Binding Assay; details: read-out: RIPK1 HTRF (IC50); FRET probe displacement, 1 h at rt
His-GST-TVMV-hRIPK1 (1-324), sequence (Q13546 1-324): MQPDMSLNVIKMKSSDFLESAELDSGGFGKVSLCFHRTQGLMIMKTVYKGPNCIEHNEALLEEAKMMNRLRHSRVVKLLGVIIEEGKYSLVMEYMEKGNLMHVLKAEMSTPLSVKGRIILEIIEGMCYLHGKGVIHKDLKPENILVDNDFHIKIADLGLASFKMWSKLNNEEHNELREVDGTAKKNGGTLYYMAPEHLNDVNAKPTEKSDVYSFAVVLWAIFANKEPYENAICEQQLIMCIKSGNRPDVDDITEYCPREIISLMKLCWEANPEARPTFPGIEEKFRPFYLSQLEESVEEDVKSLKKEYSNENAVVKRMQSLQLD
Method: A solution was prepared containing 0.2 nM Anti GST-Tb (Cisbio, 61GSTTLB), 90.6 nM probe and 1 nM His-GST-TVMV-hRIPK1 (1-324) in FRET Buffer (20 mM HEPES, 10 mM MgCl2, 0.015% Brij-35, 4 mM DTT, 0.05 mg/mL BSA). Using Formulatrix Tempest, the detection antibody/enzyme/probe solution (2 mL) was dispensed into wells of a 1536 plate (Black Low Binding Polystyrene 1536 Plate (Corning, 3724)) containing 10 nL of compounds of interest at appropriate concentration in DMSO. The plate was incubated at rt for 1 h. FRET was measured using the EnVision plate reader (Excitation: 340 nm, Emission: 520 nm/495 nM). Total signal (0% inhibition) was calculated from wells containing 10 nL DMSO only.

| Compound | IC50 [1] [nM] | IC50 [2] [nM] | IC50 ([1]; Homo sapiens) [nM] |
| --- | --- | --- | --- |
| CNC(=O)c1n[nH]c2cc(-c3cnc(OC)c(C(=O)NCCC(C)c4ccccc4)c3)ccc12 (stereo not drawn) [Example 37, 6-{6-methoxy-5-[(3-phenylbutyl)-carbamoyl]pyridin-3-yl}-N-methyl-1H-indazole-3-carbox-amide] | 0.3 | 1.7 |  |
| [2H]C([2H])([2H])Oc1ncc(-c2ccc3c(C(=O)NC([2H])([2H])C([2H])([2H])[2H])n[nH]c3c2)cc1C(=O)N[C@H](c1cc(OC(F)(F)F)ccc1F)C([2H])([2H])[2H] [Example 1] |  | 17 | 6.1 |
| CNC(=O)c1n[nH]c2cc(-c3cnc(OC)c(C(=O)NCc4ccccc4OC(C)C)c3)ccc12 [Example 93, 6-[6-methoxy-5-({[2-(propan-2-yloxy)phenyl]methyl}-carbamoyl)pyridin-3-yl]-N-methyl-1H-indazole-3-carbox-amide] | 8.3 | 1.3 |  |
| [2H]C([2H])([2H])Oc1ncc(-c2ccc3c(C(=O)NC([2H])([2H])C([2H])([2H])[2H])n[nH]c3c2)cc1C(=O)NC(C)c1cc(F)ccc1C(F)(F)F (stereo not drawn) [Example 228, N-[(1,1,2,2,2-deutero)ethyl]-6-[5-({1-[5-fluoro-2-(trifluoromethyl)-phenyl]ethyl}carbamoyl)-6-(deutero)methoxypyridin-3-yl]-1H-indazole-3-carboxamide] |  | 58 | 51 |
| [2H]C([2H])([2H])Oc1ncc(-c2ccc3c(C(=O)NC)n[nH]c3c2)cc1C(=O)N[C@@H](C)c1cccc(C(F)(F)F)c1 [Example 35, 6-[6-(deutero)methoxy-5-{[(1S)-1-[3-(trifluoromethyl)phenyl]-ethyl]carbamoyl}pyridin-3-yl]-N-methyl-1H-indazole-3-carboxamide] |  | 10 | 44 |
| CNC(=O)c1n[nH]c2cc(-c3cnc(OC)c(C(=O)NCc4ccc(F)c(C(F)(F)F)c4)c3)ccc12 [Example 104, 6-[5-({[4-fluoro-3-(trifluoro-methyl)phenyl]methyl}carbam-oyl)-6-methoxypyridin-3-yl]-N-methyl-1H-indazole-3-carboxamide] | 93 | 40 |  |
| CNC(=O)c1n[nH]c2cc(-c3cnc(OC)c(C(=O)NCCCOCC(C)C)c3)ccc12 [Example 64, 6-(6-methoxy-5-{[3-(2-methyl-propoxy)propyl]carbamoyl}-pyridin-3-yl)-N-methyl-1H-indazole-3-carboxamide] |  | 8.1 | 3 |
| COc1ccccc1N1CC(NC(=O)c2n[nH]c3cc(-c4cnc(OC)c(C(=O)NCc5ccccc5OC(F)(F)F)c4)ccc23)CC1=O (stereo not drawn) [Example 186, 6-[6-methoxy-5-({[2-(trifluoro-methoxy)phenyl]methyl}-carbamoyl)pyridin-3-yl]-N-[1-(2-methoxyphenyl)-5-oxo-pyrrolidin-3-yl]-1H-indazole-3-carboxamide] |  | 95 | 13 |
| CNC(=O)c1n[nH]c2cc(-c3cnc(OC)c(C(=O)N4CCC[C@@H](Cc5ccc(F)cc5)C4)c3)ccc12 [Example 134, 6-{5-[(3S)-3-[(4-fluorophenyl)-methyl]piperidine-1-carbonyl]-6-methoxy-pyridin-3-yl}-N-methyl-1H-indazole-3-carbox-amide, TFA] | 7.3 | 17 |  |
| CNC(=O)c1n[nH]c2cc(-c3cnc(OC)c(C(=O)NC4CCCC(C(=O)N(C)C5CC5)C4)c3)ccc12 (stereo not drawn) [Example 125, 6-[5-({3-[cyclopropyl(methyl)-carbamoyl]cyclohexyl}carbam-oyl)-6-methoxypyridin-3-yl]-N-methyl-1H-indazole-3-carbox-amide] | 8.8 | 12 |  |
| [2H]C([2H])([2H])Oc1ncc(-c2ccc3c(C(=O)NCC4CC4)n[nH]c3c2)cc1C(=O)NCCC(=O)OC(C)(C)C [Example 165, tert-butyl 3-[(5-{3-[(cyclopropyl-methyl)carbamoyl]-1H-indazol-6-yl}-2-(deutero)methoxypyridin-3-yl)formamido]propanoate] |  | 140 | 15 |
| CNC(=O)c1n[nH]c2cc(-c3cnc(OC)c(C(=O)NCC4CCCOC4C(C)(C)C)c3)ccc12 (stereo not drawn) [Example 83, 6-(5-{[(2-tert-butyloxan-3-yl)-methyl]carbamoyl}-6-methoxy-pyridin-3-yl)-N-methyl-1H-indazole-3-carboxamide] |  | 7.6 | 47 |
| [2H]C([2H])([2H])Oc1ncc(-c2ccc3c(C(=O)NC4CCC(N(C([2H])([2H])[2H])C([2H])([2H])[2H])CC4)n[nH]c3c2)cc1C(=O)NC(C)c1cccc(OC(F)(F)F)c1 (stereo not drawn) [Example 23, N-(4-(dimethyld6-amino)cyclohexyl)-6-(6-methoxyd3-5-((1-(3-(trifluoromethoxy)phenyl)ethyl)carbamoyl)pyridin-3-yl)-1H-indazole-3-carboxamide] |  | 24 | 140 |
| [2H]C([2H])([2H])Oc1ncc(-c2ccc3c(C(=O)NC4CC4)n[nH]c3c2)cc1C(=O)N[C@H](C)c1ccccc1OC(F)(F)F [Example 13, (R)—N-cyclopropyl-6-(6-methoxyd3-5-((1-(2-(trifluoromethoxy)phenyl)ethyl)carbamoyl)pyridin-3-yl)-1H-indazole-3-carboxamide] |  | 5.5 | 5.1 |
| CNC(=O)c1n[nH]c2cc(-c3cnc(OC)c(C(=O)NCc4ccccc4CN(C)C)c3)ccc12 [Example 54, 6-{5-[({2-[(dimethylamino)-methyl]phenyl}methyl)carbam-oyl]-6-methoxypyridin-3-yl}-N-methyl-1H-indazole-3-carboxamide] | 120 | 28 |  |
| N-[(1,1,2,2,2-deutero)ethyl]-6-(5- {[(1R)-1-[2-fluoro-5-(trifluoro- methoxy)phenyl]ethyl]carbamoyl}- 6-(deutero)methoxypyridin-3-yl)- 1H-indazole-3-carboxamide [Example 225] | 91 | 43 |  |
| CNC(=O)c1n[nH]c2cc(-c3cnc(OC)c(C(=O)NC(C)c4ccccc4OC(F)(F)F)c3)ccc12 (single isomer, unassigned) [Example 15, 6-(6-methoxyd3-5-((1-(2-(trifluoromethoxy)phenyl)ethyl)carbamoyl)pyridin-3-yl)-N-methyl-1H-indazole-3-carboxamide] |  | 5 |  |
| [2H]C([2H])([2H])NC(=O)c1n[nH]c2cc(-c3cnc(OC([2H])([2H])[2H])c(C(=O)N[C@@H](C)c4cccc(OC(F)(F)F)c4)c3)ccc12 [Example 220, 6-[6-(deutero)methoxy-5-{[(1S)-1-[3-(trifluoromethoxy)phenyl]ethyl]-carbamoyl}pyridin-3-yl]-N-(deutero)-methyl-1H-indazole-3-carboxamide] |  |  | 100 |
| CNC(=O)c1n[nH]c2cc(-c3cnc(OC)c(C(=O)NCCCC(=O)N(CC4CC4)C4CC4)c3)ccc12 [Example 142, 6-[5-({3-[cyclopropyl(cyclo-propylmethyl)carbamoyl]-propyl}carbamoyl)-6-meth-oxypyridin-3-yl]-N-methyl-1H-indazole-3-carboxamide] |  |  | 120 |
| CNC(=O)c1n[nH]c2cc(-c3cc(C(=O)NCc4cc(OC(F)(F)F)ccc4F)c(OC)nc3C)ccc12 [Example 161, 6-[5-({[2-fluoro-5-(tri-fluoromethoxy)phenyl]-methyl}carbamoyl)-6-methoxy-2-methylpyridin-3-yl]-N-methyl-1H-indazole-3-carboxamide] |  |  | 74 |
